In patent publication US7407973B2, “Use of pirfenidone in therapeutic regimens” (Intermune, Inc., priority 2003, dated 2008):

Tests used:
Type in all cases: biochemical
MAPK1 (Homo sapiens) = experiment: Enzymatic activity of human kinase in presence of pirfenidone; settings: percent of control activity in absence of pirfenidone, concentration not given
Procedure: (§1) Enzymatic activity of various human kinases was assayed in the presence and the absence of pirfenidone. Percent enzyme activity of various human enzymes in the presence of substrate and pirfenidone are shown in FIGS. 1-5, and in Table 2, below, where “percent enzyme activity” is the percent of the control activity (e.g., in the absence of pirfenidone): […]

PKCη = PKCη (Homo sapiens, UniProt P24723); experiment: as above; settings: percent of control activity in absence of pirfenidone, concentration not given
Procedure: as §1

cSRC = cSRC (Homo sapiens, UniProt P12931); experiment: as above; settings: percent of control activity in absence of pirfenidone, concentration not given
Procedure: as §1

SAPK4 = SAPK4 (Homo sapiens, UniProt O15264); experiment: as above; settings: percent of control activity in absence of pirfenidone, concentration not given
Procedure: as §1

SAPK3 = SAPK3 (Homo sapiens, UniProt P53778); experiment: as above; settings: percent of control activity in absence of pirfenidone, concentration not given
Procedure: as §1

Rsk3 = Rsk3 (Homo sapiens, UniProt Q15349); experiment: as above; settings: percent of control activity in absence of pirfenidone, concentration not given
Procedure: as §1

PKCα = PKCα (Homo sapiens, UniProt P17252); experiment: as above; settings: percent of control activity in absence of pirfenidone, concentration not given
Procedure: as §1

PDGFRβ = PDGFRβ (Homo sapiens, UniProt P09619); experiment: as above; settings: percent of control activity in absence of pirfenidone, concentration not given
Procedure: as §1

IKKβ = IKKβ (Homo sapiens, UniProt O14920); experiment: as above; settings: percent of control activity in absence of pirfenidone, concentration not given
Procedure: as §1

PKBα = PKBα (Homo sapiens, UniProt P31749); experiment: as above; settings: percent of control activity in absence of pirfenidone, concentration not given
Procedure: as §1

PKCβII = PKCβII (Homo sapiens, UniProt P05771); experiment: as above; settings: percent of control activity in absence of pirfenidone, concentration not given
Procedure: as §1

PRK2 = PRK2 (Homo sapiens, UniProt Q16513); experiment: as above; settings: percent of control activity in absence of pirfenidone, concentration not given
Procedure: as §1

CaMKIV = CaMKIV (Homo sapiens, UniProt Q16566); experiment: as above; settings: percent of control activity in absence of pirfenidone, concentration not given
Procedure: as §1

PDK1 = PDK1 (Homo sapiens, UniProt O15530); experiment: as above; settings: percent of control activity in absence of pirfenidone, concentration not given
Procedure: as §1

CHK2 = CHK2 (Homo sapiens, UniProt O96017); experiment: as above; settings: percent of control activity in absence of pirfenidone, concentration not given
Procedure: as §1

ROCK-II = ROCK-II (Homo sapiens, UniProt O75116); experiment: as above; settings: percent of control activity in absence of pirfenidone, concentration not given
Procedure: as §1

CDK1/cyclinB = CDK1/cyclinB (Homo sapiens, UniProt P06493); experiment: as above; settings: percent of control activity in absence of pirfenidone, concentration not given
Procedure: as §1

JNK3 = JNK3 (Homo sapiens, UniProt P53779); experiment: as above; settings: percent of control activity in absence of pirfenidone, concentration not given
Procedure: as §1

PAK2 = PAK2 (Homo sapiens, UniProt Q13177); experiment: as above; settings: percent of control activity in absence of pirfenidone, concentration not given
Procedure: as §1

Rsk1 = Rsk1 (Homo sapiens, UniProt Q15418); experiment: as above; settings: percent of control activity in absence of pirfenidone, concentration not given
Procedure: as §1

Rsk2 = Rsk2 (Homo sapiens, UniProt P51812); experiment: as above; settings: percent of control activity in absence of pirfenidone, concentration not given
Procedure: as §1

MSK1 = MSK1 (Homo sapiens, UniProt O75582); experiment: as above; settings: percent of control activity in absence of pirfenidone, concentration not given
Procedure: as §1

PRAK = PRAK (Homo sapiens, UniProt Q8IW41); experiment: as above; settings: percent of control activity in absence of pirfenidone, concentration not given
Procedure: as §1

CK2 = CK2 (Homo sapiens, UniProt P68400); experiment: as above; settings: percent of control activity in absence of pirfenidone, concentration not given
Procedure: as §1

CSK = CSK (Homo sapiens, UniProt P41240); experiment: as above; settings: percent of control activity in absence of pirfenidone, concentration not given
Procedure: as §1

PKCδ = PKCδ (Homo sapiens, UniProt Q05655); experiment: as above; settings: percent of control activity in absence of pirfenidone, concentration not given
Procedure: as §1

Fes = Fes (Homo sapiens, UniProt P07332); experiment: as above; settings: percent of control activity in absence of pirfenidone, concentration not given
Procedure: as §1

PKBβ = PKBβ (Homo sapiens, UniProt P31751); experiment: as above; settings: percent of control activity in absence of pirfenidone, concentration not given
Procedure: as §1

MAPK2 = MAPK2 (Homo sapiens, UniProt P28482); experiment: as above; settings: percent of control activity in absence of pirfenidone, concentration not given
Procedure: as §1

other kinases tested = experiment: Human kinase panel, overall conclusion: other kinases
Procedure: as §1

PKCδ, sequence (Q05655 whole entry): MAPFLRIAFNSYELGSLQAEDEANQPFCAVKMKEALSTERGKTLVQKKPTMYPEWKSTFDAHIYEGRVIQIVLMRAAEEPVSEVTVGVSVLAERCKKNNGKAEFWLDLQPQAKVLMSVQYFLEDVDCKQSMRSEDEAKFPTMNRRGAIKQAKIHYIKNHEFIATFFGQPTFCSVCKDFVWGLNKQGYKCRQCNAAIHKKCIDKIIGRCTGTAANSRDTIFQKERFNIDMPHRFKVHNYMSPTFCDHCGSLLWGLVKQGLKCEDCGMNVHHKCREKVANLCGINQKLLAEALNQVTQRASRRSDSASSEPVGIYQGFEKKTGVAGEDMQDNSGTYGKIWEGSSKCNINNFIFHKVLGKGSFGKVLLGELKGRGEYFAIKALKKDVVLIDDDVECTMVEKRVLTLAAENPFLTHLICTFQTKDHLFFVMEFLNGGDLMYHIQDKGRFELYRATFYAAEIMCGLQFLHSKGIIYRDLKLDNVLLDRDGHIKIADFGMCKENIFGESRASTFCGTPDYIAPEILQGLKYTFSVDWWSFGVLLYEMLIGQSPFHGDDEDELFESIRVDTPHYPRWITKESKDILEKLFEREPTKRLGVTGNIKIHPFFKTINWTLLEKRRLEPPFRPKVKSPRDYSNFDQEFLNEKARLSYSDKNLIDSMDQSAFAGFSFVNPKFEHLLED
PDK1, sequence (O15530 whole entry): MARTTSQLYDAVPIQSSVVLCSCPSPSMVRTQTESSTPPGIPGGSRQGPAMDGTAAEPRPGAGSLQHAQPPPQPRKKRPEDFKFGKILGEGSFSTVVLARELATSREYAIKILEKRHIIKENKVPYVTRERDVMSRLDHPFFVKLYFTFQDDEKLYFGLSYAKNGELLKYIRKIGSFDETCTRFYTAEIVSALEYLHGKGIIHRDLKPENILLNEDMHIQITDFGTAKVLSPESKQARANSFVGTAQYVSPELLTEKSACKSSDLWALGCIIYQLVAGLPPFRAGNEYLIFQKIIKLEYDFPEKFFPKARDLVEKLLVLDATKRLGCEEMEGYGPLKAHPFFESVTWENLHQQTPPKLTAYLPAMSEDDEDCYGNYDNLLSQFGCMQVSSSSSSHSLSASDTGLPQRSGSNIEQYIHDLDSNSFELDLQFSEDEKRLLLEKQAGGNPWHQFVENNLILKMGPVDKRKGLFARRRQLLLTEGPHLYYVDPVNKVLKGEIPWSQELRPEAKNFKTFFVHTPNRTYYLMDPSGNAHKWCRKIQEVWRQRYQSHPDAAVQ
ROCK-II, sequence (O75116 11-552 limits assumed): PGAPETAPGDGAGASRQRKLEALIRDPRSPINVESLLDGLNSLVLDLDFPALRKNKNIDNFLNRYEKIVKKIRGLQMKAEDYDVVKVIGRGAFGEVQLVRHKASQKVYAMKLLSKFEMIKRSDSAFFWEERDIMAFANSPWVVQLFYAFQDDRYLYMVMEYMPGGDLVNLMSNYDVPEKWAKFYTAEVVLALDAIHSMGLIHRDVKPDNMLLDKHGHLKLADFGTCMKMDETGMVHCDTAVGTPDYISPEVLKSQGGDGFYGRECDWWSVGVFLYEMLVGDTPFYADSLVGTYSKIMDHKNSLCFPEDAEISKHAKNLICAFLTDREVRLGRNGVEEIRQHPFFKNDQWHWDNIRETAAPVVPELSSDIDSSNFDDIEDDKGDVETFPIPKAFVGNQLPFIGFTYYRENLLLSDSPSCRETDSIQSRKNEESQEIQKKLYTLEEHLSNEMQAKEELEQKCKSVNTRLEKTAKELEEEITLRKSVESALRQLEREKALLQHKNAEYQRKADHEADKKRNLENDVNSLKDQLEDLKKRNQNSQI
CDK1/cyclinB, sequence (P06493 whole entry): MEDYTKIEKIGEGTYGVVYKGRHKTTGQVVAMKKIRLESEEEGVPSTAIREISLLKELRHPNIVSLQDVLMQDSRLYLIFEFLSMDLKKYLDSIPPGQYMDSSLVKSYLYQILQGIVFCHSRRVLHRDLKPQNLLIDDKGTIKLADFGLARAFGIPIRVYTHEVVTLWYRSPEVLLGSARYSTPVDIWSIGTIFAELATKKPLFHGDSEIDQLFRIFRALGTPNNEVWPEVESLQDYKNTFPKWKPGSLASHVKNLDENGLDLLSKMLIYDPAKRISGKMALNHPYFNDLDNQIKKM
CDK1/cyclinB, sequence (P14635 whole entry partner): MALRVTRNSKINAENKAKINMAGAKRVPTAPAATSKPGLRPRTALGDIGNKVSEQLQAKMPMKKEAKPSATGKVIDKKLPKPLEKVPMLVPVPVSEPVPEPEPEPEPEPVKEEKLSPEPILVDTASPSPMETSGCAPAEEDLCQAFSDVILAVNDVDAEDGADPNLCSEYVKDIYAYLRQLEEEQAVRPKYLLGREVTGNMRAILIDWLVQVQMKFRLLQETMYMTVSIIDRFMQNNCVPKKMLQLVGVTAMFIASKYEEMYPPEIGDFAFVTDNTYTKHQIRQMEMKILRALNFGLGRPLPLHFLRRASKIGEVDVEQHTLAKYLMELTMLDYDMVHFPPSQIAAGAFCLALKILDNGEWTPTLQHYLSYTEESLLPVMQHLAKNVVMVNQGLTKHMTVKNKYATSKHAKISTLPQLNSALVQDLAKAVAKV
PKBβ, sequence (P31751 whole entry): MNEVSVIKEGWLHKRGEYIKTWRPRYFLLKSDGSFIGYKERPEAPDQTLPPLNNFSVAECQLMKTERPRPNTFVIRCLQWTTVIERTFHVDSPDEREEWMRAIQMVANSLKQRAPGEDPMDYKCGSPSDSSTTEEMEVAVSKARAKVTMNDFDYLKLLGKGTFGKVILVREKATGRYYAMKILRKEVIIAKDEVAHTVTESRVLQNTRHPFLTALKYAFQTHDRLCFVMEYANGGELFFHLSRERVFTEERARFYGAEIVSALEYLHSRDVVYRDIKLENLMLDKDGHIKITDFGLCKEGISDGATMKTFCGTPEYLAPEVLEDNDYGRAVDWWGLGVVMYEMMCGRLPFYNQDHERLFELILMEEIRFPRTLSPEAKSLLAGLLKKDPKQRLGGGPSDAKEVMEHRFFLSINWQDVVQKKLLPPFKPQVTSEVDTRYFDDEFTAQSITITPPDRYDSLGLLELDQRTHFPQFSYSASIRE
PKCη, sequence (P24723 whole entry): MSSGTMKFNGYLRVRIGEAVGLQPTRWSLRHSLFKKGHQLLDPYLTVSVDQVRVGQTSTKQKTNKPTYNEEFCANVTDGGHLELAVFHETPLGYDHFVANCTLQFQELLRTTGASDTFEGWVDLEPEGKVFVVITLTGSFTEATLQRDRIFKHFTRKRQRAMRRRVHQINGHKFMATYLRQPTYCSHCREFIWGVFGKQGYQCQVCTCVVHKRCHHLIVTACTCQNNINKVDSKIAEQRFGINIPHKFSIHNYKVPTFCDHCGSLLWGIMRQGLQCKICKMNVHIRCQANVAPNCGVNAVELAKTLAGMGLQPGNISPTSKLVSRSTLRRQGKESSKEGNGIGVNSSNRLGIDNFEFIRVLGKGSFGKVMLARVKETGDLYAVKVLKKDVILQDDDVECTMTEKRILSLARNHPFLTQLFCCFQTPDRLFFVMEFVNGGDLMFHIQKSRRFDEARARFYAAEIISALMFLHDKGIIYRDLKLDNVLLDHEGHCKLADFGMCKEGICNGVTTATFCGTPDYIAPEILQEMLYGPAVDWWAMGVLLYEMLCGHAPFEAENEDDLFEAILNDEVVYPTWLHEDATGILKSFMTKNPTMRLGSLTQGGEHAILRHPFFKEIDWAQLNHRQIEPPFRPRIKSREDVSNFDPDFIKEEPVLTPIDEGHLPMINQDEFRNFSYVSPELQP
CHK2, sequence (O96017 whole entry): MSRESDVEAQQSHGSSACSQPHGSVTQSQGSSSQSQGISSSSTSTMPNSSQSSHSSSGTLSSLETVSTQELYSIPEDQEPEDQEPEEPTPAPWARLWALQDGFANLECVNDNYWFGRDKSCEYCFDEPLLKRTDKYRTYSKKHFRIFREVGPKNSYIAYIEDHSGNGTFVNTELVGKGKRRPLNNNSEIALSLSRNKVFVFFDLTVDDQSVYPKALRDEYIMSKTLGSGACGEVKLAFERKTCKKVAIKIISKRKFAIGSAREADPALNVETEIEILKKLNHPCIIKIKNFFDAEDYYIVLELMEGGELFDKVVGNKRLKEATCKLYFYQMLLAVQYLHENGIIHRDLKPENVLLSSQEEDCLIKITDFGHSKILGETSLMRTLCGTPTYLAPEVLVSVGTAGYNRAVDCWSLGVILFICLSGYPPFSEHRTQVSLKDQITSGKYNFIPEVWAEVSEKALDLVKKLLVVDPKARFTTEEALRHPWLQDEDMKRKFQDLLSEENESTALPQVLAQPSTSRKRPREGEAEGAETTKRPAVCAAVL
MSK1, sequence (O75582 whole entry): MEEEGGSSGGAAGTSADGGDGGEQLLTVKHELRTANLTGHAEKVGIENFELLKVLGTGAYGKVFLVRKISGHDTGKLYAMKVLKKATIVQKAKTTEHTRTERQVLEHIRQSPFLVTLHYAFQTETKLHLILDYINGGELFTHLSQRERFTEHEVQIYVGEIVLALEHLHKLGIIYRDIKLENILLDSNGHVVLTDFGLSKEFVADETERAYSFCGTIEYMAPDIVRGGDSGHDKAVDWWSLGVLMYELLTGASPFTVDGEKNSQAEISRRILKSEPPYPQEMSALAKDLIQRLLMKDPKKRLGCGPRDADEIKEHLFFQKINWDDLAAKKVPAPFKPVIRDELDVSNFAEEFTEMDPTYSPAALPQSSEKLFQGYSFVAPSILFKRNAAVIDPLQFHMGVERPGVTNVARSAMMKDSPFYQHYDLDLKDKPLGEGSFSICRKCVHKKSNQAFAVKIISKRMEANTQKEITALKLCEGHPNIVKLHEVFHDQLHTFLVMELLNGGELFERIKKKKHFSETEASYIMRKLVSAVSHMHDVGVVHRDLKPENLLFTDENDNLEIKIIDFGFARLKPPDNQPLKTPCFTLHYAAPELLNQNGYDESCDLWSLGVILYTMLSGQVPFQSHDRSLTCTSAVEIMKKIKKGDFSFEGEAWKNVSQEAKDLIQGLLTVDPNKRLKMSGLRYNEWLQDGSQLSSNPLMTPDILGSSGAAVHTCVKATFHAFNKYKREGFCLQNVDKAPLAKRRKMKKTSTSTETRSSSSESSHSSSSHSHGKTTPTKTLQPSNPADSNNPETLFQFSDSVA

Question: With `Cc1ccc(=O)n(-c2ccccc2)c1` [pirfenidone, 5-methyl-1-phenyl-2-(1H)-pyridone] as the compound, how does the “% Activity” value (MAPK1 (Homo sapiens)) read?
Answer: 98%

Question: And the “% Activity” value (PKCη)?
Answer: 88%

Question: What about the “% Activity” value (cSRC) of the same compound?
Answer: 91%

Question: What about the “% Activity” value (SAPK4) of the same compound?
Answer: 98%

Question: And the “% Activity” value (SAPK3)?
Answer: 46%

Question: What about the “% Activity” value (Rsk3) of the same compound?
Answer: 115%

Question: And the “% Activity” value (PKCα)?
Answer: 94%

Question: What about the “% Activity” value (PDGFRβ) of the same compound?
Answer: 101%

Question: And the “% Activity” value (IKKβ)?
Answer: 90%

Question: What about the “% Activity” value (PKBα) of the same compound?
Answer: 88%

Question: And the “% Activity” value (PKCβII)?
Answer: 100%

Question: What about the “% Activity” value (PRK2) of the same compound?
Answer: 90%

Question: What about the “% Activity” value (CaMKIV) of the same compound?
Answer: 107%

Question: And the “% Activity” value (PDK1)?
Answer: 93%

Question: What about the “% Activity” value (CHK2) of the same compound?
Answer: 84%

Question: And the “% Activity” value (ROCK-II)?
Answer: 90%

Question: And the “% Activity” value (CDK1/cyclinB)?
Answer: 102%

Question: What about the “% Activity” value (JNK3) of the same compound?
Answer: 106%

Question: And the “% Activity” value (PAK2)?
Answer: 93%

Question: What about the “% Activity” value (Rsk1) of the same compound?
Answer: 88%

Question: And the “% Activity” value (Rsk2)?
Answer: 99%

Question: What about the “% Activity” value (MSK1) of the same compound?
Answer: 93%

Question: What about the “% Activity” value (PRAK) of the same compound?
Answer: 90%

Question: And the “% Activity” value (CK2)?
Answer: 94%

Question: And the “% Activity” value (CSK)?
Answer: 64%

Question: And the “% Activity” value (PKCδ)?
Answer: 102%

Question: And the “% Activity” value (Fes)?
Answer: 88%

Question: And the “% Activity” value (PKBβ)?
Answer: 88%

Question: And the “% Activity” value (MAPK2)?
Answer: 100%

Question: And the “Inhibition of other kinases tested (conclusion from Table 2 data)” value (other kinases tested)?
Answer: does not substantially inhibit
